Measured values published in patent US5972357A, “Healthy foods and cosmetics” (Kikkoman Corporation, priority 1996, dated 1999).
Where a name gives a salt, the structure may show the parent alone. Read-outs that look alike come from different tables or passages of the source.

Legend:
bovine serum albumin [1] = assay: Maillard reaction inhibiting activity (bovine serum albumin/D-fructose)
Description: (§3) A solution containing bovine serum albumin (4 mg/ml), 500 mM D-fructose and 200 mM potassium phosphate buffer (pH 7.4) was aseptically prepared. To the solution was added 0.1 mM of a test substance. The substance insoluble in water was added as an ethanolic solution so as the final concentration of ethanol to be less than 1%. After incubation of these solutions at 37° C. for 5 days, equivalent volume of a cold 10% trichloroacetic acid solution was added to the solution to precipitate proteins. The precipitate was collected by centrifugation, further washed with a cold 5% trichloroacetic acid solution, and dissolved again in a 200 mM potassium phosphate buffer. The solution was diluted appropriately with distilled water, and the fluorescence intensity at 425 nm was measured with an excitation wave length at 350 nm in a fluorescence spectrophotometer (Shimadzu Seisakusho, Ltd.). The inhibition activity was calculated from the following equation.
(§4) Inhibition activity (%)=(Fc-Fs)/(Fc-Fb)×100
(§5) Fs: fluorescence intensity in the presence of test substance;
(§6) Fc: fluorescence intensity in the absence of test substance;
(§7) Fb: fluorescence intensity in the absence of fructose.

[2] = DPPH radical scavenging activity; conditions: 0.0002% test substance, 1.0×10^-4 M DPPH, 25° C., 1 hour, 528 nm
Description: The 1,1-diphenyl-2-picrylhydrazyl (DPPH) radical scavenging activity was tested with a garcinol preparation prepared in the similar manner as described in Referential Example 1. That is to say, a 1.0×10^-4 M solution (50% ethanolic) of DPPH was prepared, 0.0002% of a test substance was added, and the decrease of optical density at 528 nm was measured after 1 hour reaction at 25° C. for one hour. In this case, ascorbic acid was used as a standard, the decrease of the absorbance was expressed as 100, and the radical scavenging activity of the test substance was measured as equivalences to ascorbic acid. In this connection, a garcinol preparaion used as the test substance, and vitamin E and (+)-catechin were used as references.

[3] = anti-oxidation activity in a lipid oxidation process promoted by a metal ion (copper sulfate); conditions: 5 μM copper sulfate added; lesser ratio = stronger
Description: The anti-oxidation activities was evaluated according to the method by A. Ben Aziz et al. (see Phytochemistry, 10, 1445, 1971). That is to say, an emulsion of linoleic acid and β-carotene was first prepared with Tween 20 (Sigma) and adjusted to pH 7.0 with 0.1 M trishydroxyaminomethane-hydrochloride. To the emulsion was added 0.0005% of a substance to be tested, and the mixture was reacted at 25° C.
During the reaction, the color degradation of β-carotene in association with the autoxidation of linoleic acid was measured with the passage of time as the decreased value of the optical density at 460 nm with a spectrophotometer.
The substance to be tested was a garcinal preparation obtained in Referential Example 1, and vitamin E and (+)-catechin were used as Comparative Example. The antioxidant activity was measured as a ratio of the decreasing rate of absorbance in the presence of the substance to be tested to the decreasing rate of absorbance in the absence of the antioxidant. That is, the substance is judged to have an antioxidant activity when the ratio is less than 1, and thus it is predicated that the lesser the ratio, the stronger the antioxidant activity.
The oxidation process of linoleic acid in Experimental Example 1 is promoted by a metal ion. If 5 μM of copper sulfate is added to the reaction system, the color-degradation rate of β-carotene is promoted by about 30%. When garcinol was added to this system, the ratio of the decreasing rate of absorbance was 0.57. In this connection, it was 0.13 for vitamin E and 0.84 for (+)-catechin.

[4] = anti-oxidation activity (linoleic acid/β-carotene emulsion, autoxidation); conditions: 0.0005% test substance, pH 7.0, 25° C., 460 nm; lesser ratio = stronger
Description: The anti-oxidation activities was evaluated according to the method by A. Ben Aziz et al. […] That is to say, an emulsion of linoleic acid and β-carotene was first prepared with Tween 20 (Sigma) and adjusted to pH 7.0 with 0.1 M trishydroxyaminomethane-hydrochloride. […] During the reaction, the color degradation of β-carotene in association with the autoxidation of linoleic acid was measured with the passage of time as the decreased value of the optical density at 460 nm with a spectrophotometer. […] The antioxidant activity was measured as a ratio of the decreasing rate of absorbance in the presence of the substance to be tested to the decreasing rate of absorbance in the absence of the antioxidant.

[5] = superoxide scavenging activity test with phenazine methosulfate; conditions: 40 μM final concentration
Description: The active oxygen scavenging activity was evaluated according to the superoxide scavenging activity test with phenazine methosulfate. That is to say, dihydronicotinamide adenine dinucleotide and phenazine methosulfate were first reacted in a buffer at a physiological hydrogen ion concentration. The absorbance at 560 nm of a formazan pigment produced by the reduction of Nitro Blue Tetrazolium with superoxide was measured. […] The ratio of decreases of absorbance was expressed as superoxide scavenging activity.

bovine serum albumin [6] = assay: suppression of generation of reactive oxygen species in the presence of metal ion (oxidation of bovine serum albumin in Fenton reaction); assay type: biochemical; conditions: 1 mM test substance, 10 μM copper ion, 20 mM hydrogen peroxide, 4 mg/ml BSA
Description: The activity for suppressing the generation of reactive oxygen species in the presence of metal ion was evaluated by measuring the effect for suppressing the oxidation of bovine serum albumin by hydroxyl radical in the Fenton reaction system. That is to say, hydroxyl radical was first produced by divalent copper ion and hydrogen peroxide (Fenton reaction). Bovine serum albumin was oxidized by the hydroxyl radical, and thus carbonyl was produced. The carbonyl was reacted with 2,4-dinitrophenylhydrazine, and determined by measuring the absorbance at 365 nm. […] The ratio of decreases of absorbance was expressed as the activity for suppressing the generation of reactive oxygen species in the presence of metal ion.

bovine serum albumin [7] = conditions: bovine serum albumin/d-fructose, 120 h, 1000 µM, pH 7.4
Description: as §3, §4, §5, §6, §7

gastric ulcer [8] = assay: anti-ulcer test against stress ulcer (restrained immersion into water); assay type: in vivo, Wistar/ST male rats; conditions: 200 mg/kg oral
Description: Gastric ulcer was induced in Wistar/ST male rats having a weight of about 200 g (6 w) by the stress of restrained immersion into water and the anti-ulcer effects of the test samples were examined in the following groups to which test samples were administered.
(§1) Each group comprises six rats.
(§2) Group 1: (control) physiological saline
Group 2: (comparative) cetraxate hydrochloride 200 mg/kg
Group 3: (the present invention) garcinol 200 mg/kg
In this connection, the test samples in the control, comparative group and the present invention group were prepared in the same manner as in Experimental Example 9.
Rats having fasted for 24 hours were locked up in a restrained dipping cage after 30 minutes from the oral administration of respective test samples. Next, rats were stressed by dipping the cage into water at 23° C. for 7 hours, and bleeded to death under anesthetization with nembutal, and stomach was isolated. A phosphate buffer (10 ml) containing 10% formalin was injected into the stomach, which was cut open after 10 minutes, and the length of lesion caused in the glandular stomach portion was defined as the lesion index, which was measured in the mm unit to evaluate the anti-ulcer effect.
The method for calculating the suppression rate (%) and the meaning of it has been described in Experimental Example 9.

gastric ulcer [9] = assay: anti-ulcer test against indomethacin-induced gastric ulcer; assay type: in vivo, Wistar/ST male rats; conditions: 200 mg/kg oral; for Length of ulcer: 30 minutes before indomethacin (50 mg/kg s.c.), control 47.75 ± 6.08; for Suppression rate: indomethacin ulcer, vs. control
Description: Ulcer was induced in Wistar/ST male rats having a weight of about 200 g (6 week-old) by indomethacin as a gastric ulcer inducing agent, and the anti-ulcer effects of the test samples were examined in the following six groups to which test samples were administered.
as §1
______________________________________
as §2
Group 2: (comparative) cetraxate hydrochloride
Group 3: (the present invention) garcinol
Group 4: (the present invention) garcinol
Group 5: (the present invention) garcinol
Group 6: (the present invention) isogarcinol
In this connection, physiological saline containing 1% sodium carboxymethylcellulose was used as the control, and cetraxate hydrochloride (trade name "Neuer®S", Daiichi Pharmaceuticals Co., Ltd.) which is clinically used as an anti-ulcer agent was used as the comparative sample. The cetraxate hydrochloride insoluble in water was ground into fine powder with a mortar and a pestle and used as a suspension in a 1% sodium carboxymethylcellulose solution. Also, garcinol and isogarcinol in the form of fine powder were used as the suspensions in a 1% sodium carboxymethylcellulose solution in the concentrations which are the doses in the groups. In this connection, garcinol and isogarcinol used in the section of the present invention were those obtained in Referential Examples 1 and 2, respectively.
Experiment was carried out according to the method described by Yamahara et al. (see […] ZASSHI, 114, 401, 1994) which had been slightly modified. That is to say, indomethacin (50 mg/kg) was suspended in 1% sodium carboxymethylcellulose containing 0.1% Tween 20 (Sigma) and injected subcutaneously into the back of 24 hour fasted rats in an amount of 1 ml/rat. The samples in the six sections were orally administered at 30 minutes before administration of indomethacin. After 7 hours from the administration of indomethacin, rats were bleeded to death under anesthetization with nembutal, and stomach was isolated. A phosphate buffer (10 ml) containing 10% formalin was injected into the stomach, which was cut open after 10 minutes, and the length of lesion caused in the glandular stomach portion was defined as the lesion index, which was measured in the mm unit to evaluate the anti-ulcer effect. The suppression rate (%) in Table 1 means the value in which the difference of the length (mm) of ulcer in each group subtracted from the average length, 47.75 (mm) of ulcer in the control was divided with the average length, 47.75 (mm) of ulcer in the control. The larger the value, the stronger the anti-ulcer activity.

bovine lens α-crystallin = assay: α-crystallin crosslinking polymerization inhibiting activity; assay type: biochemical; conditions: 0.1 mM, 500 mM D-fructose, pH 7.4, 37° C., 2 weeks
Description: The effect of garcinol on bovine lens α-crystallin crosslinking polymerization reaction was evaluated. […] The gel after electrophoresis was stained with Coomassie Brilliant Blue, and the protein amounts in bands were determined with a densitometer. The crosslinking polymerization inhibiting activity of the protein was calculated from the following equation.
Protein polymerization inhibiting activity (%)=(Ps-Pc)/Pc×100
polymerization degree of protein=band density of polymerized protein/band density of monomer protein;
Ps: polymerization degree of protein in the presence of test substance;
Pc: polymerization degree of protein in the absence of test substance.

Molecule: N=C(N)NN [Aminoguanidine]
- Maillard reaction inhibition activity, result in words (bovine serum albumin [1]; 0.1 mM, 37° C., 5 days, pH 7.4): no activity
- Maillard reaction inhibition activity (bovine serum albumin [1]; 1 mM, 7200 min): no more than 43%

Molecule: vitamin E
- DPPH radical scavenging activity (equivalences to ascorbic acid = 100) [2]: 25
- ratio of the decreasing rate of absorbance (antioxidant activity with metal ion) [3]: 0.13
- antioxidant activity (ratio of the decreasing rate of absorbance with to without test substance) [4]: 0.10

Molecule: Oc1cc(O)c2c(c1)O[C@H](c1ccc(O)c(O)c1)[C@@H](O)C2 [(+)-catechin]
- DPPH radical scavenging activity (equivalences to ascorbic acid = 100) [2]: 73
- ratio of the decreasing rate of absorbance (antioxidant activity with metal ion) [3]: 0.84
- antioxidant activity (ratio of the decreasing rate of absorbance with to without test substance) [4]: 0.18
- superoxide scavenging rate [5]: 25%
- oxidation of bovine serum albumin, result in words (bovine serum albumin [6]): promoted oxidation rather extensively

Molecule: CC(C)(S)[C@@H](N)C(=O)O [D-penicillamine]
- Maillard reaction inhibition activity (bovine serum albumin [7]): 27%

Molecule: NC[C@H]1CC[C@H](C(=O)Oc2ccc(CCC(=O)O)cc2)CC1 [cetraxate hydrochloride, reference compound]
- Length of ulcer (gastric ulcer [8]; restrained water immersion 23° C., 7 hours, control 44.20 ± 18.10): 18.80 ± 6.02 mm
- Suppression rate (gastric ulcer [8]; stress ulcer, vs. control): 57.5%
- Length of ulcer (gastric ulcer [9]): 14.30 ± 10.9 mm
- Suppression rate (gastric ulcer [9]): 70.1%

Molecule: O=c1c(O)c(-c2ccc(O)c(O)c2)oc2cc(O)cc(O)c12 [quercetin]
- superoxide scavenging rate [5]: 63%
- protein polymerization inhibiting activity (bovine lens α-crystallin): 33%
- oxidation of bovine serum albumin, result in words (bovine serum albumin [6]): promoted oxidation rather extensively

Molecule: CC(C)=CC[C@H]1C[C@@]23C[C@@H](CC=C(C)C)C(C)(C)[C@@](CC=C(C)C)(C(=O)C(C(=O)c4ccc(O)c(O)c4)=C2OC1(C)C)C3=O [isogarcinol]
- Length of ulcer (gastric ulcer [9]): 22.40 ± 15.3 mm
- Suppression rate (gastric ulcer [9]): 53.1%
